Biological target: T1, HRP (horseradish peroxidase) (Armoracia rusticana, UniProt P00433)
T1 sequence (P00433 31-338): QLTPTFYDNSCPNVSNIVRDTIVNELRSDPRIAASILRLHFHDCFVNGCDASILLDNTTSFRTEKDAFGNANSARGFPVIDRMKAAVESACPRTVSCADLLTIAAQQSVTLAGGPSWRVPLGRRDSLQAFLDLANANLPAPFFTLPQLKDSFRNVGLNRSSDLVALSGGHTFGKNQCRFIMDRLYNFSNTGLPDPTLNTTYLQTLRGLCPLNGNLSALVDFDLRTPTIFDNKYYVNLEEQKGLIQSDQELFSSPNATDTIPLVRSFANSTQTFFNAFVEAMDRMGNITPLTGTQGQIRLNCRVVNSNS
Assay: spectrophotometric peroxidase assay, […] nm
Format: biochemical
Conditions: read-out: K m (mM) / Pyrogallol; 3.3 mM H2O2; 100 mM Na-phosphate pH 6.5

Oc1cccc(O)c1O [pyrogallol]
Km: 1.1 ± 0.1 mM

Reference: article PMC3421993 (Journal of Experimental Botany, 2012)
